Data reported in patent US4937266A, “Inhibitory agent of hepatic fibrosis” (priority 1988, dated 1990).

Key:
prolyl hydroxylase = details: rabbit, in vivo
Source text: Male Japanese white rabbits weighing 2.5 kg were used. A cholesterol group consisting of 8 rabbits were fed on RC-4 diet (sold by Oriental Kobo Co., Ltd.) containing 0.5% cholesterol for 10 weeks. […] A control group consisting of 3 rabbits were fed on RC-4 diet for the same period.
The rabbits were sacrificed by exsangunation from abdominal aorta under anesthesia with pentobarbital and the liver and kidney were removed. A portion of the each organ was homogenized with 9 times the volume of a 0.01M Tris-hydrochloric acid buffer solution (pH 7.4) containing 10^-5 M EDTA and 10^-4 M DTT in Polytron homogenizer. The prolyl hydroxylase activity was expressed as radioactivity of ^3 H2 O released per milligram of protein when ^3 H-proline labeled unhydroxylated collagen was incubated as a substrate for 30 minutes. […] Incubation was carried out at 30° C. for 30 minutes. 100 μl of a 55% trichloroacetic acid aqueous solution was added thereto to stop the reaction. The ^3 H2 O of the reaction mixture was separated by vacuum distillation of the whole reaction mixture. An aliquot (800 μl) of the distillate was mixed with 10 ml of Aquasol and counted for the radioactivity in a liquid scintillation counter. The protein amount was measured by BIO.RAD Protein Assay Kit using bovine serum albumin (BSA) as a standard.

medicinal fatty liver = details: reported in JP-B-No. 60-19891; cited from earlier work
viral hepatitis = details: reported in JP-A-No. 58-35118; cited from earlier work

## CC(C)(CO)[C@@H](O)C(=O)NCCC(=O)NCCSSCCNC(=O)CCNC(=O)[C@H](O)C(C)(C)CO [Pantethine, D-bis-(N-pantothenyl-β-aminoethyl)-disulfide]
Prolyl hydroxylase
  Prolyl Hydroxylase Activity, Liver: 729.3 ± 45.6 cpm/mg-protein
  prolyl hydroxylase activity in the liver (in words): decreased nearly to the level of the normal group
Medicinal fatty liver
  effect on medicinal fatty liver (in words): effective
Viral hepatitis
  effect on viral hepatitis (in words): effective
